The NIST ThermoML archive (doi:10.1016/j.jct.2016.04.003)

Assay: refractive index (Na D-line) (dimensionless); xn = mol fraction of the nth substance listed
Conditions: 99 kPa, Liquid, Standard Abbe refractometry

CCCC[n+]1ccccc1.F[B-](F)(F)F [1-butylpyridinium tetrafluoroborate] + O
refractive index
Conditions	293.15 K	303.15 K	313.15 K	323.15 K
x1 = 0.0165	1.34819	1.34644	1.34468	1.34263
x1 = 0.0379	1.36348	1.3612	1.35896	1.35635
x1 = 0.0863	1.38639	1.38392	1.38128	1.37835
x1 = 0.101	1.39141	1.38881	1.38613	1.38331
x1 = 0.134	1.40063	1.39805	1.39527	1.3926
x1 = 0.243	1.41888	1.41639	1.41376	1.41106
x1 = 0.289	1.42371	1.42115	1.41853	1.41585
x1 = 0.3456	1.42826	1.42571	1.42304	1.42041
x1 = 0.4217	1.43287	1.4303	1.42763	1.42496
x1 = 0.5485	1.43815	1.43558	1.43295	1.43025
x1 = 0.6029	1.43987	1.43726	1.43463	1.43194
x1 = 0.7232	1.44283	1.44021	1.43755	1.43489
x1 = 0.8005	1.44431	1.44168	1.43905	1.43637
x1 = 0.8575	1.44526	1.44261	1.43999	1.43731
x1 = 0.9315	1.44633	1.44368	1.44105	1.43838
x1 = 1	1.44719	1.44454	1.44191	1.43923

CCC[n+]1ccccc1.F[B-](F)(F)F [1-propylpyridinium tetrafluoroborate] + O
refractive index
Conditions	293.15 K	303.15 K	313.15 K	323.15 K
x1 = 0.0185	1.34795	1.34613	1.34407	1.34187
x1 = 0.0287	1.3549	1.35282	1.35055	1.34817
x1 = 0.0466	1.36529	1.36297	1.36049	1.35792
x1 = 0.0766	1.37888	1.37637	1.37374	1.37105
x1 = 0.0964	1.38592	1.38337	1.38071	1.37801
x1 = 0.2011	1.40941	1.40683	1.40419	1.40152
x1 = 0.2858	1.41984	1.41727	1.41465	1.41202
x1 = 0.3993	1.42862	1.42604	1.42343	1.42083
x1 = 0.4979	1.4337	1.4311	1.42848	1.42588
x1 = 0.5772	1.43677	1.43415	1.43152	1.42891
x1 = 0.6015	1.43757	1.43495	1.43233	1.42971
x1 = 0.6695	1.43957	1.43694	1.4343	1.43169
x1 = 0.7309	1.44111	1.43847	1.43583	1.43321
x1 = 0.7771	1.44212	1.43948	1.43685	1.43422
x1 = 0.8395	1.44335	1.4407	1.43806	1.43543
x1 = 0.9054	1.44449	1.44183	1.43918	1.43656
x1 = 0.9633	1.44537	1.44271	1.44006	1.43742
x1 = 1	1.44588	1.44322	1.44057	1.43793
